Source: patent publication US5736629A, “Herbicide resistant rice” (priority 1997, dated 1998)

Columns and labels:
[1] = target: T1, AHAS (acetohydroxyacid synthase) in enzyme extracts from rice line ATCC 75295 (Oryza sativa subsp. japonica, UniProt Q6K2E8); assay: AHAS enzyme assay, extract from rice line ATCC 75295; type: biochemical
T1 construct: 40.0 grams (fresh weight) of tissue were extracted in the same manner for each of the three varieties; from tissue; host or cells: stem tissue of greenhouse-grown rice seedlings, line ATCC 75295 (leaf blades removed)
T1 sequence (Q6K2E8 40-644 limits assumed): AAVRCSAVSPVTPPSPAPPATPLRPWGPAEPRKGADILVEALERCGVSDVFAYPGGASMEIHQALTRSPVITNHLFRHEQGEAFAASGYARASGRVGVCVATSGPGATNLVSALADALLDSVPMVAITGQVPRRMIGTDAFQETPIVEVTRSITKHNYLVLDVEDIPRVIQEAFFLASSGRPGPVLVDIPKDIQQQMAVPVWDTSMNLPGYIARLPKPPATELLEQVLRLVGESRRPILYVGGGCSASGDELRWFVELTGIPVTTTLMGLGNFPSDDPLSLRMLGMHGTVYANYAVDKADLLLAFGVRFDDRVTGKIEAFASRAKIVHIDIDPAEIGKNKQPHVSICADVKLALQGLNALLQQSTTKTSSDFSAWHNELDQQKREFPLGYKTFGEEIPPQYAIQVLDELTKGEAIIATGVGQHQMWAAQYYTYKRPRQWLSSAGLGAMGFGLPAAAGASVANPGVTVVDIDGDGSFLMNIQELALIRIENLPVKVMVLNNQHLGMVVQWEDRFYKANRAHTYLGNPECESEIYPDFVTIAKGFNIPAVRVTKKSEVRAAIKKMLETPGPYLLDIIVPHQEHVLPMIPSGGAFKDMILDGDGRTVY
From the text: The herbicide resistance of the AHAS enzyme from the ATCC 75295 rice line was compared to the resistance of the AHAS enzymes from the rice varieties "Lemont" and "Mercury," the varieties that were the ancestors of this rice line. The procedures used to assay the activity of acetohydroxyacid synthase were substantially as described in B. K. Singh et al., "Assay of Acetohydroxyacid Synthase," Analytical Biochemistry, vol. 171, pp. 173-179 (1988), except as noted. In the first paragraph of Singh's "Materials and Methods," instead of corn suspension culture cells, stem tissues from greenhouse-grown rice seedlings at the four-leaf stage of development were used. Leaf blades were removed, and 40.0 grams (fresh weight) of tissue were extracted in the same manner for each of the three varieties. […] Pursuit herbicide (imazethapyr) was included in the "standard reaction mixture" for the AHAS assay in the concentrations indicated in Table 1 below. Checks were made of direct acetoin formation during the enzyme assay. Each treatment was conducted with two replicates.

[2] = tested on: rice line ATCC 97523 (second resistance mechanism only); assay: Greenhouse test of plant vigor after imazethapyr, ATCC 97523; type: in vivo; settings: for Rating of rice plant vigor: 36 days after treatment at 2-3 leaf stage, 10-point scale, 0 = dead plant, 10 = no visible injury
From the text: In the greenhouse tests, pots were planted with F3 seed from crosses between the two lines. Each pot was planted with seed from a single panicle from a single plant; each pot was therefore the equivalent of a headrow. A total of 140 pots were planted in this manner, along with 40 pots of various non-resistant genotypes for comparison. Imazethapyr was applied at the 2-3 leaf stage two weeks after planting, at rates equivalent to 0.063 lb. active ingredient (a.i.) per acre, 0.125 lb. a.i./acre, and 0.313 lb. a.i./acre.
Table 2 summarizes measurements taken 36 days after spraying rice at the 2-3 leaf stage of development.

[3] = tested on: other anther-culture progeny rows of Mercury//Lemont/Mercury rice; assay: Open-field spray screen of anther-culture progeny rows, all other rows; type: in vivo
Method: This resistant line was derived by conducting anther culture on the F2 progeny of a backcross made by pollinating a rice plant of the variety "Lemont" with pollen from the rice variety "Mercury," followed by a backcross using pollen from this hybrid to pollinate a plant of the variety "Mercury." The resulting backcross is described as Mercury//Lemont/Mercury. Anthers collected from a plant resulting from this backcross were plated on callus induction medium, and the resulting calli were transferred to plant regeneration media. The procedures used were generally as described in Croughan and Chu, "Rice (Oryza saliva L.): Establishment of Callus Cultures and the Regeneration of Plants" in Bajaj (Ed.), "Biotechnology in Agriculture and Forestry," pp. 19-37 (1991). Several regenerated plants were produced and grown to maturity in a greenhouse to produce seed. Progeny seed were planted in an open field, and herbicide applications were made using a garden tractor-mounted spray rig.
A set of 4,193 progeny rows derived from this anther culture procedure were planted in an open field, and were sprayed with 4 ounces per acre of Pursuit (1.00 ounce active ingredient imazethapyr per acre) at the four-leaf stage of seedling development. […]

[4] = tested on: mutagenised rice seedlings of ten rice varieties; assay: Field screen of mutagenised rice seedlings, all other plants; type: in vivo; settings: 2X treatment: nicosulfuron 0.063 lb a.i. per acre, imazethapyr 0.125 lb a.i. per acre; 0.25% non-ionic surfactant; 3-4 leaf stage; about four weeks later
From the text: The second resistance mechanism resulted from inducing mutations in seeds of each of ten rice varieties. Mutations were induced by exposure either to gamma rays or to the chemical mutagen ethyl methanesulfonate (EMS). Ten-pound lots of seed of each variety were subjected to 25 k-rad of gamma irradiation from a Cobalt-60 source at the Nuclear Science Center, Louisiana State University, Baton Rouge, La. prior to planting. An additional ten pounds of seed of each variety was divided into three equal portions; and each portion was soaked for 16 hours in either 0.1%, 0.5%, or 1% EMS immediately prior to planting. Several hundred pounds of seed were harvested from plants grown from the seeds subjected to these mutagenic treatments.
The following spring the harvested seed was planted in strips in a field planting occupying a total of about three acres. At the 3-4 leaf stage of seedling development, herbicides were applied to screen for herbicide-resistant mutants. Half of the seedlings of each variety were sprayed with a 2X treatment of nicosulfuron, and half were sprayed with a 2X treatment of imazethapyr, in both cases by a tractor-mounted sprayer. Nicosulfuron was applied at the rate of 0.063 lb active ingredient (a.i.) per acre, and imazethapyr was applied at 0.125 lb a.i. per acre. Non-ionic surfactant (0.25%) was added to each spray solution. […]

## CCc1cnc(C2=NC(C)(C(C)C)C(=O)N2)c(C(=O)O)c1 (racemic) [imazethapyr, (±)-2-[4,5-dihydro-4-methyl-4-(1-methylethyl)-5-oxo-1H-imidazol-2-yl]-5-ethyl-3-pyridinecarboxylic acid]
[1]; imazethapyr 0.1 μM
  activity at 0.1 µM: 102%
[1]; imazethapyr 1 μM
  activity at 1 µM: 89%
[1]; imazethapyr 10 μM
  activity at 10 µM: 61%
[1]; imazethapyr 100 μM
  activity at 100 µM: 48%
[2]; 0.063 lb. a.i./acre
  Rating of rice plant vigor: 9.01 ± 0.59
[2]; 0.125 lb. a.i./acre
  Rating of rice plant vigor: 5.71 ± 0.93
[2]; 0.313 lb. a.i./acre
  Rating of rice plant vigor: about 4.0
[2]; 0.313 lb. a.i./acre, listed as Imazethapyr
  Rating of rice plant vigor: 4.00 ± 0.32
[2]; ATCC 97523 plants, greenhouse test
  Time to visible resumption of growth after herbicide application: about two weeks
[2]; plants with only the second resistance mechanism, 0.313 lb a.i./acre, 36 days after treatment
  Visible injury (in words): substantial injury
[3]; 4 ounces per acre Pursuit (1.00 ounce a.i. per acre), four-leaf stage, open field
  Symptoms (in words): injured or killed
[3]; second spray 8 ounces/acre Pursuit (2.00 ounce a.i. per acre), four weeks after the initial treatment, rows that survived the initial spraying
  Symptoms (in words): lethal
[4]
  Symptoms of injury (in words): either severely injured or dead
